According to PubChem BioAssay (NCI):
“And” between values parts separate entries of the source, which are not always exact repeats. Identical values can stand only once.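 Five compound concentrations were applied to cells in 96-well plates for 48 hours; endpoints were derived by simple linear interpolation of the resulting dose-response curve. GI50 = concentration required for 50% inhibition of growth. TGI: total growth inhibition.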

Experiments:
Assay in all cases: inhibition of tumour cell growth, NCI panel, 48 h
UACC-257 melanoma = tested on: UACC-257 melanoma
SF-539 CNS = tested on: SF-539 CNS
OVCAR-8 ovarian = tested on: OVCAR-8 ovarian
UO-31 renal = tested on: UO-31 renal
TK-10 renal = tested on: TK-10 renal
BT-549 breast = tested on: BT-549 breast
SNB-75 CNS = tested on: SNB-75 CNS
HCT-15 colon = tested on: HCT-15 colon
HL-60(TB) leukemia = tested on: HL-60(TB) leukemia
SF-295 CNS = tested on: SF-295 CNS

| SMILES | GI50 (UACC-257 melanoma) | TGI (UACC-257 melanoma) | GI50 (SF-539 CNS) | TGI (SF-539 CNS) | GI50 (OVCAR-8 ovarian) | TGI (OVCAR-8 ovarian) | GI50 (UO-31 renal) | TGI (UO-31 renal) | GI50 (TK-10 renal) | TGI (TK-10 renal) | GI50 (BT-549 breast) | TGI (BT-549 breast) | GI50 (SNB-75 CNS) | TGI (SNB-75 CNS) | GI50 (HCT-15 colon) | TGI (HCT-15 colon) | GI50 (HL-60(TB) leukemia) | TGI (HL-60(TB) leukemia) | GI50 (SF-295 CNS) | TGI (SF-295 CNS) |
| --- | --- | --- | --- | --- | --- | --- | --- | --- | --- | --- | --- | --- | --- | --- | --- | --- | --- | --- | --- | --- |
| NC(=NCCCCCCN=C(N)/N=C(\N)Nc1ccc(Cl)cc1)/N=C(\N)Nc1ccc(Cl)cc1 | 2.01 µM | 7.93 µM | 1.62 µM | 3.98 µM | 1.67 µM | 7.19 µM | 2.61 µM | 11 µM | 2.13 µM | 8.9 µM | 1.52 µM | 4.24 µM | 1.03 µM | 2.92 µM | 2 µM | 9.46 µM | 1.1 µM | 2.49 µM | 0.966 µM | 2.35 µM |
| CNC(=O)CCN1CCN(CC/C=C2\c3ccccc3Sc3ccc(Cl)cc32)CC1 | 1.53 µM | 3.06 µM | 12.5 µM | 25.6 µM | 14.4 µM | 32.2 µM | 11.4 µM | 27.4 µM | 14 µM | 29.2 µM | 10.7 µM | 24 µM | 7.43 µM | 23.1 µM | 6.57 µM | 20.6 µM | 4.33 µM | > 41.1 µM | 1.84 µM | 6.47 µM |
| COC(=O)[C@@]12OC[C@]34[C@H]([C@@H](O)[C@@H]1O)[C@@]1(C)CC(=O)C(O)=C(C)[C@@H]1C[C@H]3OC(=O)[C@H](OC(=O)/C=C(\C)C(C)C)[C@@H]24 | – | 0.0316 µM and 0.0305 µM | – | 0.00611 µM and 0.0234 µM | – | 0.0406 µM and 0.0561 µM | – | 0.0834 µM and 0.142 µM and 0.405 µM | 0.0235 µM | 0.0719 µM and 0.0333 µM | 0.0262 µM | 0.06 µM and 0.0156 µM and 0.0214 µM | – | 0.0186 µM and 0.0203 µM | – | 0.0588 µM and 0.0562 µM and 0.055 µM | – | 0.00583 µM | – | 0.0345 µM and 0.0582 µM |
| COc1cc(N=Nc2cc(Cc3ccc(N(C)C)cc3)c(N)cc2N(C)C)c2ncccc2c1 | 0.438 µM | 5.22 µM | 0.705 µM | 2.06 µM | 0.387 µM | 2.19 µM | 0.252 µM | 1.97 µM | 1.62 µM | 4.36 µM | 1.41 µM | 5.63 µM | 0.574 µM | 2.04 µM | 0.195 µM | 1.99 µM | 0.267 µM | 1.36 µM | 0.618 µM | 2 µM |
